Values quoted from earlier work as cited in patent US10995060B2, “Amorphous Trisodium Sacubitril Valsartan and process for its preparation” (priority 2016, dated 2021).
Counter-ions that a name gives are not always drawn. Like-named read-outs stand apart in the source and are kept apart here.

Columns and labels:
[1] = for Crystalline state / polymorph stability after exposure: 80° C at 0% RH and 75% RH for 3 days; for Result after loading of the sample at 80° C./0% RH / Result after loading of the sample at 80° C./75% RH: solid form by X-ray powder analysis, 3 days
[2] = crystal powder of Example 11 of WO 200206253

Hygroscopicity [2]	Molecule	Crystalline state / polymorph stability after exposure [1]	Result after loading of the sample at 80° C./0% RH [1]	Result after loading of the sample at 80° C./75% RH [1]	Result after loading of the sample at 80° C./75% RH ([1]; listed as sodium salt of Sacubitril)
	CCOC(=O)[C@H](C)C[C@@H](Cc1ccc(-c2ccccc2)cc1)NC(=O)CCC(=O)O [calcium salt of sacubitril]	did not change	Crystalline sample(form I)I	Crystalline sample(form I)I	
	CCOC(=O)[C@H](C)C[C@@H](Cc1ccc(-c2ccccc2)cc1)NC(=O)CCC(=O)[O-].[Na+] [sodium salt of sacubitril]	high rate of polymorph instability	Semicrystalline phase	Amorphous sample	completely amorphous
slightly hygroscopic	Hydrate of valsartan disodium salt (2.4 ě 1.0 mole H2O)				
